In patent US6667325B1, “Substituted pyrazole compounds” (Teikoku Hormone Mfg. Co., Ltd., priority 1999, dated 2003):

| SMILES | melting point |
| --- | --- |
| CC(OCc1ccccc1)c1[nH]nc(-c2ccc(F)cc2)c1-c1ccncc1 (stereo not drawn) [Example 83, 5(3)-[1-(Benzyloxy)ethyl]-3(5)-(4-fluorophenyl)-4-(4-pyridyl)pyrazole] | 169.2 to 173.5 °C |
| CC(=Cc1[nH]nc(-c2ccc(F)cc2)c1-c1ccncc1)Cc1cccnc1 [Example 27, 3(5)-(4-Fluorophenyl)-5(3)-[2-methyl-3-(3-pyridyl)-1-propenyl]-4-(4-pyridyl)pyrazole] | 215.5 to 217.5 °C |
| Fc1ccc(-c2n[nH]c(CCCn3cccn3)c2-c2ccncc2)cc1 [Example 55, 3(5)-(4-Fluorophenyl)-5(3)-[3-(1-pyrazolyl)propyl]-4-(4-pyridyl)pyrazole] | 144.5 to 146.5 °C |
| Cn1nc(-c2ccc(F)cc2)c(-c2ccncc2)c1C(O)CCc1ccccc1 (stereo not drawn) [Example 15, 3-(4-Fluorophenyl)-5-(1-hydroxy-3-phenylpropyl)-1-methyl-4-(4-pyridyl)pyrazole] | 62 to 65 °C |
| CCn1nc(-c2ccc(F)cc2)c(-c2ccncc2)c1C(=O)N(C)Cc1ccccn1 [Example 80, 1-Ethyl-3-(4-fluorophenyl)-5-(N-methyl-2-pyridylmethylaminocarbonyl)-4-(4-pyridyl)pyrazole] | 144.4 to 146.8 °C |
| Fc1ccc(-c2n[nH]c(CCCc3cccnc3)c2-c2ccncc2)cc1 [Example 43, 3(5)-(4-Fluorophenyl)-4-(4-pyridyl)-5(3)-[3-(3-pyridyl)propyl]pyrazole] | 207 to 210 °C |
| Cn1nc(-c2ccc(F)cc2)c(-c2ccncc2)c1C=CCc1ccccc1 [Example 29, 3-(4-Fluorophenyl)-1-methyl-5-(3-phenyl-1-propenyl)-4-(4-pyridyl)pyrazole] | 136 to 137 °C |
| COc1ccc(CNC(=O)c2c(-c3ccncc3)c(-c3ccc(F)cc3)nn2C)cc1 [Example 69, 3-(4-Fluorophenyl)-5-(4-methoxybenzylaminocarbonyl)-1-methyl-4-(4-pyridyl)pyrazole] | 162.3 to 164.8 °C |
| Cn1nc(-c2ccc(F)cc2)c(-c2ccncc2)c1CCCc1ccc([N+](=O)[O-])cc1 [Example 56, 3-(4-Fluorophenyl)-1-methyl-5-[3-(4-nitrophenyl)propyl]-4-(4-pyridyl)pyrazole] | 129.1 to 131.8 °C |
| CCn1nc(-c2ccc(F)cc2)c(-c2ccncc2)c1C(=O)N(C)Cc1ccccc1 [Example 75, 1-Ethyl-5-(N-methylbenzylaminocarbonyl)-3-(4-fluorophenyl)-4-(4-pyridyl)pyrazole] | 148 to 149.3 °C |
| Fc1ccc(-c2n[nH]c(CCCc3ccccc3)c2-c2ccncc2)cc1 [Example 31, 3(5)-(4-Fluorophenyl)-5(3)-(3-phenylpropyl)-4-(4-pyridyl)pyrazole] | 155.5 to 156.5 °C |
| CCN(Cc1ccccc1)C(=O)c1c(-c2ccncc2)c(-c2ccc(F)cc2)nn1CC [Example 76, 1-Ethyl-5-(N-ethylbenzylaminocarbonyl)-3-(4-fluorophenyl)-4-(4-pyridyl)pyrazole] | 114.9 to 116.7 °C |
| Fc1ccc(-c2n[nH]c(C=CCc3cccnc3)c2-c2ccncc2)cc1 [Example 26, 3(5)-(4-Fluorophenyl)-4-(4-pyridyl)-5(3)-[3-(3-pyridyl)-1-propenyl]pyrazole] | 187 to 188 °C |
| Cn1nc(-c2ccc(F)cc2)c(-c2ccncc2)c1CCCc1ccccc1 [Example 58, 3-(4-Fluorophenyl)-1-methyl-5-(3-phenylpropyl)-4-(4-pyridyl)pyrazole] | 83 to 87 °C |
| O=C(Cc1ccccc1)Cc1[nH]nc(-c2ccc(F)cc2)c1-c1ccncc1 [Example 86, 3(5)-(4-Fluorophenyl)-5(3)-(2-oxo-3-phenylpropyl)-4-(4-pyridyl)pyrazole] | 187.7 to 193.5 °C |
| CN(Cc1ccccc1)C(=O)c1c(-c2ccncc2)c(-c2ccc(F)cc2)nn1C [Example 77, 3-(4-Fluorophenyl)-1-methyl-5-(N-methylbenzylaminocarbonyl)-4-(4-pyridyl)pyrazole] | 149.1 to 150.2 °C |
| CN(Cc1ccccc1)C(=O)c1c(-c2ccncc2)c(-c2ccc(F)cc2)nn1CCO [Example 81, 3-(4-Fluorophenyl)-1-(2-hydroxyethyl)-5-(N-methylbenzylaminocarbonyl)-4-(4-pyridyl)pyrazole] | 135.9 to 138.1 °C |
| COc1ccc(CN(C)C(=O)c2c(-c3ccncc3)c(-c3ccc(F)cc3)nn2C)cc1 [Example 79, 3-(4-Fluorophenyl)-1-methyl-5-(N-methyl-4-methoxybenzylaminocarbonyl)-4-(4-pyridyl)pyrazole] | 150.1 to 152.6 °C |
| Cn1nc(-c2ccc(F)cc2)c(-c2ccncc2)c1CCCc1ccc(N)cc1 [Example 57, 5-[3-(4-Aminophenyl)propyl]-3-(4-fluorophenyl)-1-methyl-4-(4-pyridyl)pyrazole] | 80.5 to 81.1 °C |
| Fc1ccc(-c2n[nH]c(CCCc3ccccn3)c2-c2ccncc2)cc1 [Example 40, 3(5)-(4-Fluorophenyl)-4-(4-pyridyl)-5(3)-[3-(2-pyridyl)propyl]pyrazole] | 143 to 144.5 °C |
| Cn1nc(-c2ccc(F)cc2)c(-c2ccncc2)c1CC(=O)Cc1ccccc1 [Example 87, 3-(4-Fluorophenyl)-1-methyl-5-(2-oxo-3-phenylpropyl)-4-(4-pyridyl)pyrazole] | 148.1 to 151 °C |
| COc1ccc(CN(C)C(=O)c2[nH]nc(-c3ccc(F)cc3)c2-c2ccncc2)cc1 [Example 73, 3(5)-(4-Fluorophenyl)-5(3)-(N-methyl-4-methoxybenzylaminocarbonyl)-4-(4-pyridyl)pyrazole] | 225.8 to 228.4 °C |
| CCN(Cc1ccccc1)C(=O)c1[nH]nc(-c2ccc(F)cc2)c1-c1ccncc1 [Example 74, 5(3)-(N-Ethylbenzylaminocarbonyl)-3(5)-(4-fluorophenyl)-4-(4-pyridyl)pyrazole] | 202.9 to 204.6 °C |
| Fc1ccc(-c2n[nH]c(COCc3ccccc3)c2-c2ccncc2)cc1 [Example 82, 5(3)-(Benzyloxymethyl)-3(5)-(4-fluorophenyl)-4-(4-pyridyl)pyrazole] | 177.6 to 180.2 °C |
